In paper PMC7583046, “The Paralogue of the Intrinsically Disordered Nuclear Protein 1 Has a Nuclear Localization Sequence that Binds to Human Importin α3” (International Journal of Molecular Sciences, 2020):
Entries after “also recorded” stand apart in the source; their conditions may differ.

How the values were obtained:
[1] = DOSY translational diffusion NMR; type: physicochemical; conditions: 120 μM peptide, 283 K
Description: The peptide concentration in DOSY experiment was 120 μM, and 128 scans were acquired, where the gradient strength was varied linearly. Translational self-diffusion measurements were performed with the pulsed-gradient spin-echo sequence in the presence of 100% D2O. Experimental details have been described elsewhere. The gradient strength was varied in sixteen linear steps between 2 and 95% of the total power of the gradient coil. The gradient strength was calibrated using the value of the translational diffusion coefficient, D, for the residual proton water signal in a sample containing 100% D2O in a 5 mm tube [53]. The length of the gradient was 2.25 ms, the time between the two pulse gradients in the pulse sequence was 200 ms, and the recovery delay between the bipolar gradients was 100 μs. The methyl groups with signals between 1.0 and 0.80 ppm were used for peak integration (Section 2.2.1). Fitting of the exponential curves, obtained from experimental data as previously described, was carried out with KaleidaGraph version 3.5 (Synergy Software, Reading, PA, USA). A final concentration of 1% of dioxane, which was assumed to have a hydrodynamic radius Rh = 2.12 Å [53], was added to the peptide solution.

[2] = Conformation of isolated peptide by fluorescence, far-UV CD and NMR; type: physicochemical
Description: Appropriate blank corrections were made in all spectra.
All spectra were corrected by subtracting the corresponding baseline.
An amount of 128 scans was acquired with 16 K acquisition points for the homonuclear 1D-^1H-NMR spectrum, and using a peptide concentration of 1.0–1.2 mM. Water signal was suppressed using the WATERGATE sequence. The spectrum was processed with Bruker TopSpin 2.1 (Bruker GmbH, Karlsruhe, Germany), after zero-filling and apodization with an exponential window.
Two-dimensional spectra were acquired in each dimension in the phase-sensitive mode using the time-proportional-phase incrementation technique (TPPI) and a spectral width of 7801.69 Hz; the final concentration of the NLS-NUPR1L was the same as that used in the 1D experiments. Standard TOCSY (Total correlation spectroscopy) (with a mixing time of 80 ms) and NOESY experiments (with a mixing time of 250 ms) were performed by acquiring a data matrix size of 4096 × 512 points. The DIPSI (decoupling in the presence of scalar interactions) spin-lock sequence was used in the TOCSY experiments with 1 s of relaxation time. Typically, 96 scans were acquired per increment in the first dimension, and the residual water signal was removed using the WATERGATE sequence. NOESY spectra were collected typically with 96 scans per increment in the first dimension, with the residual water signal removed again by the WATERGATE sequence, and with 1 s of relaxation time. Data were zero-filled, resolution-enhanced with a square sine-bell window function optimized in each spectrum, baseline-corrected, and processed with the Bruker TopSpin 2.1 software (Bruker GmbH, Karlsruhe, Germany). The ^1H resonances were assigned by standard sequential assignment processes. The chemical shift values of Hα protons in random-coil regions were obtained from tabulated data, corrected by neighbouring residue effects.

[3] = biological target: T1, ∆Impα3 (Impα3 without IBB, residues 64-521) (Homo sapiens, UniProt O00629); experiment: Isothermal titration calorimetry, binding to ∆Impα3; conditions: Tris 50 mM pH 8, 298 K
T1 construct: codon-optimized, His-tagged ∆Impα3 (residues 64-521) were carried out using BL21 (DE3) cells; His-tag; made in house; host or cells: E. coli BL21 (DE3)
T1 sequence (O00629 64-521): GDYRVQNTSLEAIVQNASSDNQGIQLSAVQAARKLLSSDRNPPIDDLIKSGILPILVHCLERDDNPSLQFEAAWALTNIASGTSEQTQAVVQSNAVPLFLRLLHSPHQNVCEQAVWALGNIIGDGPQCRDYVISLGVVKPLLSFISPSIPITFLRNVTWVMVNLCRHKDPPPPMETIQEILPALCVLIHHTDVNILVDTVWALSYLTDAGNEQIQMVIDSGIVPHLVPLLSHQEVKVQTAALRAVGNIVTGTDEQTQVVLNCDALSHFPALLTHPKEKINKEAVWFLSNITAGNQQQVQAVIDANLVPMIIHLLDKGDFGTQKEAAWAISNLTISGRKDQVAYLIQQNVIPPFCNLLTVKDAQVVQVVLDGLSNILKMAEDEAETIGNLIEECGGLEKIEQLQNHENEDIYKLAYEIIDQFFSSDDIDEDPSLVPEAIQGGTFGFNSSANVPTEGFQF
From the text: Figure 4 Binding of NLS-NUNPR1L to both importin species: (A) Titration curve monitoring the changes of Impα3 fluorescence at 340 nm in the presence of NLS-NUPR1L, after excitation at 280 nm. (B) Titration curve monitoring the changes of ∆Impα3 fluorescence at 340 nm in the presence of NLS-NUPR1L, after excitation at 280 nm. […] (C) Calorimetric binding isotherms (ligand normalized heat effect per injection as a function of the ligand/protein molar ratio) for the interaction of NLS-NUPR1L with Impα3 (left) and ∆Impα3 (right) are shown, with the thermogram (raw thermal power data as a function of time) at the top of each panel. Binding parameters were estimated by non-linear least squares regression data analysis of the interaction isotherms applying a single ligand binding site model implemented in Origin 7.0. (OriginLab, Northampton, MA, USA).
The experimental set-up and data processing of ITC experiments have been described previously. […] The temperature for all experiments was 298 K. The experiments were analyzed applying a model considering a single ligand binding site (1:1 stoichiometry for the NLS-NUPR1L/Impα3 (or ∆Impα3) interaction) implemented in Origin 7.0 (OriginLab, Northampton, MA, USA).

**Q.** Which “translational diffusion coefficient D” value ([1]; 100% D2O, pH 7.2, 50 mM Tris) does the source give for “Ac-RTRREQALRTNWPAPGGHERKVAQ-NH2 [NLS-NUPR1L]” here?
**A.** The value was 1.74 ± 0.05 × 10^−6 cm^2 s^−1.

**Q.** And the association state [1]?
**A.** The association state was “monomeric”.

**Q.** What about the “hydrodynamic radius Rh” value ([1]; estimated by comparison with dioxane (1%)) of the same substance?
**A.** The value was 12 ± 2 Å.

**Q.** What about the “far-UV CD minimum” value ([2]; 298 K, 50 mM phosphate pH 7.0) of the same substance?
**A.** The value was ~ 203 nm.

**Q.** And the fluorescence emission maximum ([2]; excitation 280 nm, 50 mM phosphate pH 7.0, 298 K)?
**A.** The fluorescence emission maximum was 353 nm.

**Q.** And the “conformation in aqueous solution” value ([2]; fluorescence, far-UV CD and NMR)?
**A.** Its value is “random-coil conformation; also recorded: disordered in aqueous solution; also recorded: did not have any propensity to acquire helix- or turn-like conformations”.

**Q.** What about the “n, stoichiometry (ITC), ∆Impα3” value [3] of the same substance?
**A.** The value was 0.75 ± 0.06.

**Q.** And the “∆H (ITC), ∆Impα3” value [3]?
**A.** Its value is -2.4 ± 0.5 kcal/mol.
